Data as given in US9249108B2, “Multicomponent system of rosuvastatin calcium salt and sorbitol” (BASF SE, priority 2010, dated 2016).

Tests used:
[1] = Water uptake under humidity; assay type: physicochemical
[2] = assay type: physicochemical
Experimental: Aqueous Solubility Determination: Approximately 0.5 mL of doubly distilled water is added to 16 to 39 mg of the substance to be measured. The resulting suspension is equilibrated in a temperature-controlled Eppendorf Thermomixer Comfort shaker for 2 h and 24 h at 25° C. at a shaking rate of 600 rpm. After 24 h the solid phase is recovered by filter centrifugation (0.10-μm PVDF membrane) and examined by XRPD. Concentrations in the filtrate after 2 h and 24 h (i.e., saturated solutions) are determined using HPLC. The pH of the saturated solution is determined with a Metrohm 713 pH meter.

Rosuvastatin hemicalcium salt/crystal form D (1:1 co-crystal with D-sorbitol)
water uptake under humidity [1]: less prone to water uptake under humidity | solubility [2]: as good as solid forms of Rosuvastatin calcium previously known
